{"source": "patent US10939684B2", "about": "“Preparation of sulfonamide-containing antimicrobials and substrate treating compositions of sulfonamide-containing antimicrobials” (NANO SAFE COATINGS INCORPORATED, priority 2015, dated 2021)", "type_in_all_cases": "cell-based", "key": {"Arthrobacter spp.": {"system": "Arthrobacter spp.", "assay": "Large-droplet inoculation method, antimicrobial efficacy at solid-air interfaces", "conditions": "treated polystyrene; for Average / A (cfu) / B (cfu) / C (cfu): load 1.28E+08; for Average: average of A-C; for A (cfu): replicate A; for B (cfu): replicate B; for C (cfu): replicate C", "from_the_text": "(§1) Large-droplet inoculation method (Ronan E. et al, Biofouling 2013, 29, 1087-1096) Many pathogens are able to remain viable during extended periods of desiccation on inanimate surfaces. Long-term survival of pathogens in the inanimate environment pose a significant risk for infection transmission and contamination in high-risk environments such as hospital rooms or food-processing plants. The large-droplet inoculation method was developed to simulate the deposition of bacterial species onto exposed surfaces and to determine the ability of these cells to survive desiccation.\n(§2) For these tests, small surface coupons were first coated with the antimicrobial using the method described above. Bacterial test species were grown overnight in a shaking incubator and cultures\n(§3) were washed twice to replace the growth media with sterile water. 100 μL aliquots of the prepared culture were then inoculated onto multiple coated surfaces and allowed to air-dry within a biological safety cabinet. Drying typically occurred 2-3 hours after inoculation, and surviving cells were enumerated immediately and 24 hours after drying. For enumeration, inoculated coupons were sacrificed in triplicate and placed inside separate tubes containing 5 mL of a 0.9% saline collection liquid. Each coupon was agitated vigorously for 1 minute with a bench-top vortex to transfer cells from the test surface to the collection liquid. Plate counts were then performed on serial dilutions of the collection liquid, and colony counts from triplicate treated surfaces were averaged and compared to colony counts from tests of untreated control surfaces carried out in parallel.\n(§4) A range of bacterial species were used in these tests. Arthrobacter spp., a gram-positive lab strain originally isolated from indoor air was used in the bulk of the testing, as it is known to be highly resistant to desiccation and therefore was used as a model for desiccation-tolerant pathogens. Efficacy tests were also carried out against, for example, gram-negative Escherichia coli (E. coli) and gram-positive Staphylococcus aureus (S. aureus), since they all contain pathogenic strains and have been implicated in major nosocomial outbreaks. […] The following are the tabulated bacterial reduction data: […]"}, "[1]": {"system": "Escherichia coli (E. coli)", "assay": "Large-droplet inoculation method, antimicrobial efficacy at solid-air interfaces", "conditions": "for Average / A (cfu) / B (cfu) / C (cfu): E. coli, treated polyethylene, load 5.05E+07; for Average: average of A-C; for A (cfu): replicate A; for B (cfu): replicate B; for C (cfu): replicate C; for activity against E. coli (in words): treated polyethylene coupons, compared to untreated control (FIG. 6)", "from_the_text": "as §1, §2, §3, §4"}, "[2]": {"system": "Staphylococcus aureus (S. aureus)", "assay": "Large-droplet inoculation method, antimicrobial efficacy at solid-air interfaces", "conditions": "for Average / A (cfu) / B (cfu) / C (cfu): S. aureus, treated polyethylene, load 8.30E+05; for Average: average of A-C; for A (cfu): replicate A; for B (cfu): replicate B; for C (cfu): replicate C; for activity against S. aureus (in words): treated polyethylene coupons, compared to untreated control (FIG. 6)", "from_the_text": "as §1, §2, §3, §4"}, "[3]": {"system": "Arthrobacter spp. planktonic cells", "assay": "Static biofilm test in coated polyethylene test tubes, planktonic cell survival", "conditions": "48 hours; for Average / A (cfu) / B (cfu) / C (cfu): planktonic cells; for Average: average of A-C; for A (cfu): replicate A; for B (cfu): replicate B; for C (cfu): replicate C; for activity against planktonic cells (in words): initial test and re-challenge (FIG. 9)", "procedure": "(§5) The interior of polyethylene test tubes was coated with the sulfonamide QUAT antimicrobial similarly as in Example 32. Tubes were filled with 2.7 mL of growth media (3 g/L TSB) into which 300 μL of Arthrobacter spp. bacterial culture was inoculated. Planktonic cells were sampled after 48 hours of incubation and agitation by removing 100 μL aliquots from each tube. After 48 hours, the liquid in each tube was removed completely so that biofilm attachment to the interior of the tubes could be assessed. To test for biofilm attachment the tubes were first gently rinsed in a saline solution to remove any loosely attached or residual planktonic cells. Next, 1 mL of saline solution was added to each tube before the tubes were vortexed vigorously for 1 minute to transfer biofilm cells to the collection liquid. Plate counts were then performed on serial dilutions of this collection liquid. Planktonic and biofilm colony counts from triplicate coated tubes were averaged and compared to colony counts from tests of uncoated control tubes carried out in parallel. After 14 days of exposure to ambient air, the tubes used in the above test were subjected to a second static biofilm test as described above, without reapplying the antimicrobial. This test was performed to determine whether the antimicrobial effects of the coating persisted following repeated exposures."}, "[4]": {"system": "Arthrobacter spp. biofilm cells", "assay": "Static biofilm test in coated polyethylene test tubes, biofilm cell survival", "conditions": "for Average / A (cfu) / B (cfu) / C (cfu): biofilm cells, 48 hours; for Average: average of A-C; for A (cfu): replicate A; for B (cfu): replicate B; for C (cfu): replicate C", "procedure": "as §5"}, "[5]": {"conditions": "listed as 3-(4-benzoylphenoxy)-N,N-dimethyl-N-(3-(2,4,6-trimethylphenyl sulfonamido)propyl)"}, "[6]": {"conditions": "listed as 3-(4-benzoylphenoxy)-N,N-dimethyl-N-(3-(2,4,6-trimethylphenylsulfonamido)propyl)"}, "[7]": {"conditions": "initial test, treated polyethylene test tubes, load 7.75E+08"}, "[8]": {"conditions": "rechallenge after 14 days without reapplying, load 8.00E+08"}}, "note": "“Also recorded” adds a separate entry of the source.", "data": [{"molecule": "Cc1cc(C)c(S(=O)(=O)NCCC[N+](C)(C)CCCOc2ccc(C(=O)c3ccccc3)cc2)c(C)c1.[Br-]", "note": "[Example 3c, 3-(4-benzoylphenoxy)-N,N-dimethyl-N-(3-(2,4,6-trimethylphenylsulfonamido)propyl)propan-1-aminium bromide]", "values": [{"measurement": "activity against Arthrobacter spp. (in words)", "setting": "Arthrobacter spp.; compared to untreated control (FIG. 3)", "value": "eradicated within three hours; also recorded: excellent activity"}, {"measurement": "Average", "setting": "Arthrobacter spp.; 3 hours", "value": "0.00E+00", "unit": "cfu"}, {"measurement": "A (cfu)", "setting": "Arthrobacter spp.; 3 hours", "value": "0.00E+00", "unit": "cfu"}, {"measurement": "B (cfu)", "setting": "Arthrobacter spp.; 3 hours", "value": "0.00E+00", "unit": "cfu"}, {"measurement": "C (cfu)", "setting": "Arthrobacter spp.; 3 hours", "value": "0.00E+00", "unit": "cfu"}, {"measurement": "Average", "setting": "Arthrobacter spp.; 24 hours", "value": "0.00E+00", "unit": "cfu"}, {"measurement": "A (cfu)", "setting": "Arthrobacter spp.; 24 hours", "value": "0.00E+00", "unit": "cfu"}, {"measurement": "B (cfu)", "setting": "Arthrobacter spp.; 24 hours", "value": "0.00E+00", "unit": "cfu"}, {"measurement": "C (cfu)", "setting": "Arthrobacter spp.; 24 hours", "value": "0.00E+00", "unit": "cfu"}, {"measurement": "Average", "setting": "[1]; 3 hours", "value": "0.00E+00", "unit": "cfu"}, {"measurement": "A (cfu)", "setting": "[1]; 3 hours", "value": "0.00E+00", "unit": "cfu"}, {"measurement": "B (cfu)", "setting": "[1]; 3 hours", "value": "0.00E+00", "unit": "cfu"}, {"measurement": "C (cfu)", "setting": "[1]; 3 hours", "value": "0.00E+00", "unit": "cfu"}, {"measurement": "Average", "setting": "[1]; 24 hours", "value": "0.00E+00", "unit": "cfu"}, {"measurement": "A (cfu)", "setting": "[1]; 24 hours", "value": "0.00E+00", "unit": "cfu"}, {"measurement": "B (cfu)", "setting": "[1]; 24 hours", "value": "0.00E+00", "unit": "cfu"}, {"measurement": "C (cfu)", "setting": "[1]; 24 hours", "value": "0.00E+00", "unit": "cfu"}, {"measurement": "activity against E. coli (in words)", "setting": "[1]; [5]", "value": "excellent activity"}, {"measurement": "activity against E. coli (in words)", "setting": "[1]; [6]", "value": "eradicated within three hours"}, {"measurement": "Average", "setting": "[2]; 3 hours", "value": "0.00E+00", "unit": "cfu"}, {"measurement": "A (cfu)", "setting": "[2]; 3 hours", "value": "0.00E+00", "unit": "cfu"}, {"measurement": "B (cfu)", "setting": "[2]; 3 hours", "value": "0.00E+00", "unit": "cfu"}, {"measurement": "C (cfu)", "setting": "[2]; 3 hours", "value": "0.00E+00", "unit": "cfu"}, {"measurement": "Average", "setting": "[2]; 24 hours", "value": "0.00E+00", "unit": "cfu"}, {"measurement": "A (cfu)", "setting": "[2]; 24 hours", "value": "0.00E+00", "unit": "cfu"}, {"measurement": "B (cfu)", "setting": "[2]; 24 hours", "value": "0.00E+00", "unit": "cfu"}, {"measurement": "C (cfu)", "setting": "[2]; 24 hours", "value": "0.00E+00", "unit": "cfu"}, {"measurement": "activity against S. aureus (in words)", "setting": "[2]; [5]", "value": "excellent activity"}, {"measurement": "activity against S. aureus (in words)", "setting": "[2]; [6]", "value": "eradicated within three hours"}, {"measurement": "Average", "setting": "[3]; [7]", "value": "0.00E+00", "unit": "cfu"}, {"measurement": "A (cfu)", "setting": "[3]; [7]", "value": "0.00E+00", "unit": "cfu"}, {"measurement": "B (cfu)", "setting": "[3]; [7]", "value": "0.00E+00", "unit": "cfu"}, {"measurement": "C (cfu)", "setting": "[3]; [7]", "value": "0.00E+00", "unit": "cfu"}, {"measurement": "Average", "setting": "[3]; [8]", "value": "0.00E+00", "unit": "cfu"}, {"measurement": "A (cfu)", "setting": "[3]; [8]", "value": "0.00E+00", "unit": "cfu"}, {"measurement": "B (cfu)", "setting": "[3]; [8]", "value": "0.00E+00", "unit": "cfu"}, {"measurement": "C (cfu)", "setting": "[3]; [8]", "value": "0.00E+00", "unit": "cfu"}, {"measurement": "activity against planktonic cells (in words)", "setting": "[3]; treated polyethylene test tubes, listed as 3-(4-benzoylphenoxy)-N,N-dimethyl-N-(3-(2,4,6-trimethylphenyl sulfonamido)propyl)", "value": "excellent activity"}, {"measurement": "activity against planktonic cells (in words)", "setting": "[3]; treated polyethylene test tubes, listed as 3-(4-benzoylphenoxy)-N,N-dimethyl-N-(3-(2,4,6-trimethylphenylsulfonamido)propyl)", "value": "complete eradication"}, {"measurement": "Average", "setting": "[4]; [7]", "value": "0.00E+00", "unit": "cfu"}, {"measurement": "A (cfu)", "setting": "[4]; [7]", "value": "0.00E+00", "unit": "cfu"}, {"measurement": "B (cfu)", "setting": "[4]; [7]", "value": "0.00E+00", "unit": "cfu"}, {"measurement": "C (cfu)", "setting": "[4]; [7]", "value": "0.00E+00", "unit": "cfu"}, {"measurement": "Average", "setting": "[4]; [8]", "value": "0.00E+00", "unit": "cfu"}, {"measurement": "A (cfu)", "setting": "[4]; [8]", "value": "0.00E+00", "unit": "cfu"}, {"measurement": "B (cfu)", "setting": "[4]; [8]", "value": "0.00E+00", "unit": "cfu"}, {"measurement": "C (cfu)", "setting": "[4]; [8]", "value": "0.00E+00", "unit": "cfu"}, {"measurement": "activity against biofilm cells / biofilm development (in words)", "setting": "[4]; treated polyethylene test tubes, 48 hours (FIG. 10)", "value": "excellent activity"}]}]}
